We go through 3 compounds from patent US11254635B2, “Emodin succinyl ester compound, preparation method therefor and application thereof” (JIANGSU KANION PHARMACEUTICAL CO., LTD., priority 2017, dated 2022).

The test system of data set [1] is rats with mixed hyperlipidemia. Nature of the data set: Levels of TC and TG in the liver of rats with mixed hyperlipidemia, Example 6. The class given is in vivo. The note with it: two weeks; for TC / TG: liver, high-fat diet; for effect on TC in liver / effect on TG in liver: low, medium, high doses of the ester, atorvastatin calcium 10 mg/kg, vs hyperlipidemia model group. The procedure: (§1) Feeding rats with high-fat feed containing cholesterol, sucrose, lard, and sodium cholate can form a rat model of lipid metabolism disorders, and then the rats are administrated with drug, detect the effect of the test object on hyperlipidemia, and determine the effect of the test object on the lipid absorption, lipoprotein formation, lipid degradation or excretion in rats.
(§2) Second random grouping: After the establishment of the rat hyperlipidemia model, the blood lipids of the rats were measured, and rats in the hyperlipidemia model group were randomly divided into five groups, 11 rats in the positive drug group, 10 rats in each of the other groups. The five groups were the hyperlipidemia model group, the low-dose test object group (emodin succinyl ethyl ester in a dose of 10 mg/kg·d^−1), the medium-dose test object group (emodin succinyl ethyl ester in a dose of 20 mg/kg·d^−1), the high-dose test object group (emodin succinyl ethyl ester in a dose of 40 mg/kg·d^−1), and the positive control drug group (Atorvastatin calcium group in a dose of 10 mg/kg·d^−1), respectively.
(§3) The rats in the successfully grouped high-dose test object, medium-dose, and low-dose groups and positive control drug group (atorvastatin calcium group) were intragastrically administered daily. Rats in the blank control group and the hyperlipidemia model group were given corresponding doses of lysozyme.
(§4) Feeding conditions remained unchanged. The rats were weighed once a week. Blood were collected at the tip of the tail two weeks after drug administration and livers were taken, to determine the levels of TC, TG, LDL-C, and HDL-C in serum of the rats and the levels of TC and TG in the liver, and then the effect of the test object on the TC, TG, LDL-C and HDL-C in serum of the rats and the TC and TG in liver were observed.
(3) TC and TG in liver, measured after sampling

Data set [2] deals with rats with mixed hyperlipidemia. Nature of the data set: Blood lipid levels in rats with mixed hyperlipidemia (high-fat feed), Example 6. The note with it: two weeks; for effect on TG in serum: high dose of the ester; for effect on TG in serum / effect on LDL-C in serum / effect on TC in serum: atorvastatin calcium 10 mg/kg, vs hyperlipidemia group; for effect on LDL-C in serum / effect on TC in serum: low, medium, high doses of the ester; for LDL-C / TC / TG: serum, high-fat diet. Format: in vivo. The procedure: as §1, §2
In the experimental groups, rats in the blank control group were fed with maintenance feed and the remaining 5 groups were fed with high-fat diet. After 2 weeks, the levels of TG, TC, LDL-C and HDL-C in the serum of the rats were measured. The rats were weighed once a week.
as §3, §4

The subject of data set [3] is skin wound of mice with type 1 diabetes. Nature of the data set: Wound healing of mice with diabetes (STZ model, 5 mm skin punch wound). Format: in vivo, Kunming mice. The note with it: 100 μg/mL oil, 10 μL dripped on the wound once a day, 14 days; vs diabetes model, solvent control and emodin groups. The procedure: SPF-grade male Kunming mice (18-20 g) were adaptively fed with ordinary maintenance feed for 3-5 days, weighed and randomly divided into a blank control group (Control) and a diabetes model group. Mice in the diabetes model group were administrated with high-dose STZ (streptozotocin, 180 mg/kg) through intraperitoneal injection and fasting blood glucose was measured after one week. The mice successfully modeled were randomly divided into 5 groups, namely, the diabetes model group (Model), the solvent control group (Solvent), the positive drug (recombinant human epidermal growth factor) control group (EGF), the emodin group (DHS), and the emodin succinyl ethyl ester group (DHS-YSW).
Animals in each group were anesthetized with sodium pentobarbital (1%) and shaved on the back. A 5 mm skin punch was used to establish a 5 mm wound model at the highest part of the back. The Control group and the Model group were not treated with any drugs. The solvent control group was dripped with 10 μL of sterile vegetable oil. The positive drug group was dripped with 10 μL of recombinant human epidermal factor solution (2000 IU/mL) each day. The other groups were dripped on the wound with 10 μL of a corresponding drug, once a day for 14 consecutive days. […]
The experimental data were expressed as mean±standard error. […] The experimental results were all analyzed and graphed using GraphpadPrism6.0.

For data set [4], the system named is oleic acid-induced hyperlipemia cells (HepG2 cell line). Nature of the data set: Levels of TC and TG in oleic acid-induced hyperlipemia cells. Format: cell-based. The settings on record: for TC / TG: HepG2, oleic acid 200 μmol/L, 24 hours. The procedure:
Oleic acid is added to culture HepG2 cells to induce a hyperlipemia cell model, and then the cells are given a test drug, the effect of the test object on the lipid level of the cells is detected.
When the degree of cell fusion reached about 80%, except for the normal group, cells in other groups were all added with oleic acid at a dose of 200 μmol/L, and then the cells were divided into five groups: the normal group, the oleic acid-induced hyperlipemia group, low-dose emodin succinyl ethyl ester group (5 μmol/L), the medium-dose emodin succinyl ethyl ester group (10 μmol/L) and the high dose emodin succinyl ethyl ester group (20 μmol/L). 24 hours later, the levels of TC and TG were measured.
The cells were digested with 0.25% trypsin to prepare a cell suspension; the cell suspension was centrifuged at 1000 rpm for 10 minutes; the supernatant was discarded, and the cell pellet was collected, washed with PBS once or twice, and configured at 1000 rpm for 10 minutes; the supernatant was discarded, and the cell pellet was collected.
200 μl of 2% TritonX-100 was added for lysis for 30 minutes.
First, the protein concentration of the sample was determined using the Beyotime kit. Then, 250 μl of working solution was added to a 96-well plate, 2.5 μl of distilled water was added to the blank wells, 2.5 μl of calibration solution was added to the calibration wells, 2.5 μl of sample was added to the sample wells, and they were all incubated for 10 minutes at 37° C. The OD values were measured by using a 510 nm microplate reader.
3.2.4 Calculation Formulas: Cholesterol content=(sample OD value−blank OD value)/(calibrated OD value−blank OD value)*5.17/protein concentration of the sample to be tested Triglyceride content=(sample OD value−blank OD value)/(calibrated OD value−blank OD value)*2.26/protein concentration of the sample to be tested.

For data set [5], the system named is rats with mixed hyperlipidemia. Nature of the data set: Comparison of emodin succinyl ethyl ester and emodin in lowering blood lipid levels in rats with mixed hyperlipidemia, Example 7. Format: in vivo. The procedure: Feeding rats with high-fat feed containing cholesterol, sucrose, lard and sodium cholate can form a rat model of lipid metabolism disorders and then the rats are administered with a drug, detect the effects of the test object on hyperlipidemia, and determine the effect of the test object on the lipid absorption, lipoprotein formation, lipid degradation or excretion in rats.
Second random grouping: After the establishment of the rat hyperlipidemia model, the blood lipids of the rats were measured, and rats in the hyperlipidemia model group were randomly divided into four groups, 11 rats in the positive drug group, 10 rats in each of the other groups. The four groups were the hyperlipidemia model group, the low-dose test object (emodin succinyl ethyl ester in a dose of 20 mg/kg·d^−1) group, the emodin (20 mg/kg·d^−1) group, and the positive control drug (Atorvastatin calcium group in a dose of 10 mg/kg·d^−1) group, respectively.
In the experimental groups, rats in the blank control group were fed with maintenance feed and the remaining 4 groups were fed with a high-fat diet. After 2 weeks, the levels of TG, TC, LDL-C and HDL-C in the serum of the rats were measured. The rats were weighed once a week.
The rats in the successfully grouped test object (emodin succinyl ethyl ester) group, emodin group and positive control drug group (atorvastatin calcium group) were intragastrically administered daily. Rats in the blank control group and the hyperlipidemia model group were given corresponding doses of lysozyme.
Feeding conditions remained unchanged. The rats were weighed once a week. Blood were collected at the tip of the tail two weeks after drug administration. The effect of the test object on the TC, TG, LDL-C and HDL-C in serum of the rats were observed.

For data set [6] the following is noted: cited from earlier work.
Setting [7] is: 10 mg/kg intragastrically once a day.
Setting [8] is: 20 mg/kg intragastrically once a day.
The mark [9] stands for this setting: 40 mg/kg intragastrically once a day.
[10] abbreviates: low, medium and high doses (5, 10, 20 μmol/L), vs oleic acid group.
[11] abbreviates: 20 mg/kg·d^−1, two weeks, vs hyperlipidemia group.
The mark [12] stands for this setting: 20 mg/kg·d^−1 vs equivalent dose of emodin (20 mg/kg·d^−1), two weeks.

SMILES strings stand for the structures. Where two headings read alike, the source gives them in different places.

As to `CCOC(=O)CCC(=O)Oc1cc(O)c2c(c1)C(=O)c1cc(C)cc(O)c1C2=O` [emodin succinyl ethyl ester, 1,8-dihydroxy-3-succinic acid monoethyl group-6-Methylanthraquinone], the TC in data set [1] (setting [7]) is given as 0.069 ± 0.010 mmol/L; in data set [1] (setting [8]), 0.078 ± 0.010 mmol/L; in data set [1] (setting [9]), 0.059 ± 0.005 mmol/L; in data set [2] (setting [7]), 2.60 ± 0.74 mmol/L; in data set [2] (setting [8]) it was 2.36 ± 0.78 mmol/L; in data set [2] (setting [9]) it was 2.88 ± 0.34 mmol/L. Further, the TC in data set [4] (5 μmol/L) was 0.730 ± 0.168 mmol/L; in data set [4] (10 μmol/L), 0.506 ± 0.197^###& mmol/L; in data set [4] (20 μmol/L) it was 0.537 ± 0.145^###&& mmol/L. The TG in data set [1] (setting [7]) is given as 0.105 ± 0.023 mmol/L; in data set [1] (setting [8]), 0.127 ± 0.016 mmol/L; in data set [1] (setting [9]), 0.079 ± 0.011 mmol/L; in data set [2] (setting [7]) it was 3.98 ± 0.63 mmol/L; in data set [2] (setting [8]), 4.12 ± 0.37 mmol/L; in data set [2] (setting [9]), 3.23 ± 0.12 mmol/L. Also, the TG in data set [4] (5 μmol/L) is on record as 0.610 ± 0.308 mmol/L; in data set [4] (10 μmol/L) it was 0.487 ± 0.347 mmol/L; in data set [4] (20 μmol/L), 0.414 ± 0.209 mmol/L. Further, in data set [1], the “effect on TC in liver” value is on record as “reduce”. The “effect on TG in liver” value in data set [1] is recorded as “reduce”. Besides, the “effect on TG in serum” value in data set [2] is reported as “significantly reduce”. Moreover, the “effect on LDL-C in serum” value in data set [2] and in data set [5] (setting [11]) was “significantly reduce” each time. The “effect on TC in serum” value in data set [2] and in data set [5] (setting [11]) was “significantly reduce” each time. Besides, the LDL-C in data set [2] (setting [7]) was found to be 0.17 ± 0.08 mmol/L; in data set [2] (setting [8]) it was 0.15 ± 0.05 mmol/L; in data set [2] (setting [9]), 0.18 ± 0.03 mmol/L. The wound healing speed result in data set [3] is “significantly faster wound healing speed”. Also, in data set [4] (setting [10]), the “effect on level of TC of cells” value is given as “significantly reduce”. The “effect on level of TG of cells” value in data set [4] (setting [10]) is “significantly reduce”. The “lowering LDL-C in serum compared with emodin” value in data set [5] (setting [12]) was “better effects”. In addition, the “lowering TC in serum compared with emodin” value in data set [5] (setting [12]) is recorded as “better effects”.

With `Cc1cc(O)c2c(c1)C(=O)c1cc(O)cc(O)c1C2=O` [emodin, 1,3,8-trihydroxy-6-methylanthraquinone], the figures for the absolute bioavailability in data set [6] (female SD rats) and in data set [6] (male SD rats) were 5% and 7.5%, respectively.

With `CC(C)c1c(C(=O)Nc2ccccc2)c(-c2ccccc2)c(-c2ccc(F)cc2)n1CC[C@@H](O)C[C@@H](O)CC(=O)[O-].CC(C)c1c(C(=O)Nc2ccccc2)c(-c2ccccc2)c(-c2ccc(F)cc2)n1CC[C@@H](O)C[C@@H](O)CC(=O)[O-].[Ca+2]` [Atorvastatin calcium, reference compound], in data set [1] (setting [7]), the TC is 0.066 ± 0.004 mmol/L and the TG came out at 0.090 ± 0.008 mmol/L. For the same compound, in data set [1], the “effect on TC in liver” value is “reduce” and the “effect on TG in liver” value is listed as “reduce”. Besides, in data set [2], the “effect on TG in serum” value was “significantly reduce”, the “effect on LDL-C in serum” value is “significantly reduce” and the “effect on TC in serum” value is “significantly reduce”. In addition, in data set [2] (setting [7]), the LDL-C was found to be 0.13 ± 0.03 mmol/L, the TC is listed as 2.82 ± 1.02 mmol/L and the TG came to 2.94 ± 0.20 mmol/L.
